Target: Glycogen synthase kinase-3 beta (Homo sapiens, UniProt P49841)
Assay: GSK3beta kinase inhibitor potency, dose response, biochemical, luminescence, cell-free homogeneous, retest (AID 434954)

Sequence of Glycogen synthase kinase-3 beta (P49841 whole entry): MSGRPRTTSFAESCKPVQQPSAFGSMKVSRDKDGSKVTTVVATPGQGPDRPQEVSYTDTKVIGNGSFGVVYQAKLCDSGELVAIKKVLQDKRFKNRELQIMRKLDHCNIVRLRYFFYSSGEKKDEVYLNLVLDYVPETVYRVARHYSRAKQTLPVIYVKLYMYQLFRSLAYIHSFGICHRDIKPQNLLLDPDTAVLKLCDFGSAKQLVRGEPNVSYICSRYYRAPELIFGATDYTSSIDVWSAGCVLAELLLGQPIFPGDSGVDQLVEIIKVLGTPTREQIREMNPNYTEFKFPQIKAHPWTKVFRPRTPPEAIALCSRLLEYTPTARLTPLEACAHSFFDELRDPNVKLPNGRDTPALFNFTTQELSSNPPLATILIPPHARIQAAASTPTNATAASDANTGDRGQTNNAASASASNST

In the case of `Clc1ccccc1Nc1nc(-c2ccncc2)nc2ccccc12` [MLS001163918], the EC50 is reported as greater than 300 µM.
With `COC(=O)c1cccc(Nc2nc(-c3ccncc3)nc3ccccc23)c1` [MLS001163930] the EC50 was greater than 300 µM.
With `CCc1n[nH]c(=S)n1N=CC(C)=Cc1ccccc1` [MLS001164489] the EC50 was greater than 300 µM.
Molecule `Cc1cccc(COc2ccc(/C=C3/C(=O)N(C)C(=S)N3C)cc2)c1` [MLS001164511] has an EC50 greater than 300 µM.
Work on `COc1cc(C=Nn2c(C3CCCCC3)n[nH]c2=S)cc(Br)c1O` [MLS001164684] yielded an EC50 of 4.17 µM.
`CN(C)CCCNc1nc(N)c([N+](=O)[O-])c(NCc2ccccc2)n1` [MLS001165050] gave an EC50 of 38 µM.
For `COCCCNc1nc(N)c([N+](=O)[O-])c(NC2CCCCC2)n1` [MLS001165157], the EC50 was 0.86 µM.
`COc1cccc(C(=O)CC(C#N)c2ccc(F)cc2)c1` (stereo not given) [MLS001165246] showed an EC50 greater than 300 µM.
`N#Cc1c(-c2ccccc2)nc(-c2cccnc2)[nH]c1=O` [MLS001165441] showed an EC50 greater than 300 µM.
Work on `N#Cc1c(Cl)nc(-c2cccnc2)nc1-c1ccccc1` [MLS001165453] yielded an EC50 greater than 300 µM.
`COc1ccc(C(=O)c2ccsc2N)cc1` [MLS001166080] gave an EC50 greater than 300 µM.
Work on `CS(=O)(=O)Nc1cccc(-c2cn3c(n2)SCC3)c1` [MLS001167062] yielded an EC50 greater than 300 µM.
`COCCn1c(SCC(=O)NCc2ccccc2)nc2ccccc21` [MLS001171409] was tested, and the EC50 was greater than 300 µM.
`COC1=CC(CN=Nc2ccc([N+](=O)[O-])cn2)C=C(OC)C1=O` [MLS001173549] gave an EC50 of 5.41 µM.
In the case of `CCN1CCN(CC2COc3ccccc3O2)CC1` (stereo not given) [MLS001173643], the EC50 is reported as greater than 300 µM.
Molecule `COc1ccc(N2CCN(c3cc(C)nc4ccc(OC)cc34)CC2)cc1` [MLS001174346] has an EC50 greater than 300 µM.
`Nc1ncc([N+](=O)[O-])c(N2CCCCCC2)n1` [MLS001174873] showed an EC50 of 18.4 µM.
`O=C(c1ccc(Br)cc1)c1coc2ccc(O)cc12` [MLS001178337] showed an EC50 of 15.4 µM.
`CCN(CC)CCOC(=O)c1ccc(NC(=S)NC(=O)C=Cc2ccco2)cc1` [MLS001178772] was tested, and the EC50 was greater than 300 µM.
`COc1ccc(C(=O)c2sc(Nc3ccccc3)nc2C)cc1` [MLS001181792] was tested, and the EC50 was 32.1 µM.
With `CN(C)c1nc2c(N)ncnc2n1[C@H]1O[C@@H](CO)[C@H](O)[C@@H]1O` [MLS001181978] the EC50 was greater than 300 µM.
In the case of `Cc1nc[nH]c1C(=O)NN=Cc1c(Cl)cccc1Cl` [MLS001182271], the EC50 is reported as 21.8 µM.
Molecule `O=C1Nc2ccccc2/C1=N/c1cccc([N+](=O)[O-])c1` [MLS001194693] has an EC50 greater than 300 µM.
`COCc1c(C(=O)NN=Cc2ccncc2)nnn1-c1nonc1N` [MLS001194772] showed an EC50 of 40.1 µM.
Molecule `Cc1ccc(-c2nc(Nc3cccc(O)c3)c3ccccc3n2)cc1` [MLS001196546] has an EC50 greater than 300 µM.
`Cc1ccc(NC2=CC(=O)CC(C)(C)C2)cc1F` [MLS001198284] gave an EC50 greater than 300 µM.
In the case of `COc1ccc(CN=Nc2ccc([N+](=O)[O-])cc2)cc1O` [MLS001198430], the EC50 is reported as greater than 300 µM.
`COc1ccc(C(=O)c2coc3ccc(O)cc23)cc1` [MLS001198628] was tested, and the EC50 was 13.2 µM.
Molecule `COc1cccc2cc(CC(=O)c3cc(C)ccc3C)c(=O)oc12` [MLS001198676] has an EC50 greater than 300 µM.
In the case of `Cc1ccc(CNS(=O)(=O)c2c(C)[nH]c(=O)[nH]c2=O)cc1` [MLS001200136], the EC50 is reported as greater than 300 µM.
In the case of `COc1ccc(C(=O)c2sc(Nc3ccccc3)nc2N)cc1OC` [MLS001202046], the EC50 is reported as 0.358 µM.
Molecule `COC(=O)c1nnn(-c2nonc2N)c1CN1CCCC1` [MLS001202105] has an EC50 greater than 300 µM.
Molecule `O=C1N=C(Nc2ccccc2Cl)SC1=Cc1ccc(C(=O)O)cc1` [MLS001203362] has an EC50 greater than 300 µM.
`NC(=O)CSc1nnc(COc2ccc3ccccc3c2)o1` [MLS001203608] gave an EC50 greater than 300 µM.
`CC(CC(=O)Nc1nnc(C(C)(C)C)s1)c1ccccc1` (stereo not given) [MLS001205585] gave an EC50 greater than 300 µM.
Molecule `O=C(CN1C(=O)COc2ccccc21)Nc1ccccc1F` [MLS001205921] has an EC50 greater than 300 µM.
Work on `Cc1ccc(C(=O)O/N=C(\N)c2ccccn2)c(Cl)c1` [MLS001206211] yielded an EC50 of 26.2 µM.
For `COc1ccccc1-c1c(C(F)(F)F)oc2c(CN(C)C)c(O)ccc2c1=O` [MLS001206868], the EC50 was greater than 300 µM.
`COc1cccc(C2Nc3ccccc3N=C3CC(C)(C)CC(=O)C32)c1` (stereo not given) [MLS001207292] was tested, and the EC50 was greater than 300 µM.
`COc1ccc(OC)c(NCc2nnc(-c3ccccc3)o2)c1` [MLS001208999] showed an EC50 greater than 300 µM.
`COc1cc(/C=C2/C(=O)NN(c3cccc(Cl)c3)C2=O)cc(Br)c1O` [MLS001210835] was tested, and the EC50 was 42.6 µM.
For `Cc1cccc(C(=O)NC2CC3CCCC(C2)N3Cc2ccccc2)c1` (stereo not given) [MLS001212730], the EC50 was greater than 300 µM.
`CC1=C(C#N)C(=O)NC(=O)C1=NNc1ccc(Br)cc1C(=O)O` [MLS001213177] showed an EC50 greater than 300 µM.
With `CC1=C(C#N)C(=O)NC(=O)C1=NNc1ccc(Cl)c(C(=O)O)c1` [MLS001213189] the EC50 was 39.8 µM.
`CC(C)CNc1nc(N)c([N+](=O)[O-])c(NC2CCCCC2)n1` [MLS001213331] gave an EC50 of 13.5 µM.
`O=C(O)c1cccc(Nc2ccnc(Nc3cccc(C(=O)O)c3)n2)c1` [MLS001213333] was tested, and the EC50 was greater than 300 µM.
For `Nc1nc(NCCc2ccccc2)nc(NCCO)c1[N+](=O)[O-]` [MLS001213372], the EC50 was 2.01 µM.
`Nc1nc(NCCOCCO)nc(NCc2ccccc2)c1[N+](=O)[O-]` [MLS001213400] showed an EC50 of 21.7 µM.
Molecule `CN(C)CCCNc1nc(N)c([N+](=O)[O-])c(NC2CCCCC2)n1` [MLS001213448] has an EC50 of 3.15 µM.
`COc1ccccc1-n1c(S)nnc1-c1ccco1` [MLS001214684] showed an EC50 greater than 300 µM.
In the case of `CCCCn1nc(NC(=O)CCC)c2cc3cc(OC)ccc3nc21` [MLS001214871], the EC50 is reported as greater than 300 µM.
For `COC(CNc1nc(SC)nc2sc3c(c12)CCN(C)C3)OC` [MLS001215082], the EC50 was greater than 300 µM.
`COc1ccc(OC)c(Nc2nc(N(C)c3ccccc3)nc(N)c2[N+](=O)[O-])c1` [MLS001215240] showed an EC50 greater than 300 µM.
In the case of `CCC(NC(=O)Cc1c(C)c2cc3c(cc2oc1=O)OC(C)(C)CC3)C(=O)O` (stereo not given) [MLS001215946], the EC50 is reported as greater than 300 µM.
In the case of `CCn1c(SCC(=O)Nc2cc(Cl)ccc2OC)nnc1C1CC1` [MLS001220637], the EC50 is reported as greater than 300 µM.
Work on `CCOc1ccccc1NC(=O)c1nnn(-c2ccc3c(c2)OCCO3)c1N` [MLS001221013] yielded an EC50 greater than 300 µM.
For `COc1ccc(CNC(=O)CN(Cc2ccc(OC)cc2)C(=O)CCC(=O)Nc2nccs2)cc1` [MLS001222948], the EC50 was 19.1 µM.
In the case of `Cc1onc(-c2ccccc2Cl)c1C(=O)NNC(=O)c1ccc(F)cc1` [MLS001223650], the EC50 is reported as greater than 300 µM.
For `CCOc1ccc(OCC)c(NC(=O)CSc2nnc(C3CC3)n2CC)c1` [MLS001223718], the EC50 was greater than 300 µM.
Work on `O=C(Nc1ccccc1)Nc1cnccn1` [MLS001229949] yielded an EC50 greater than 300 µM.
For `O=C(NN=Cc1cccnc1)c1cc(-c2ccccc2)nc2c(Cl)cccc12` [MLS001230128], the EC50 was greater than 300 µM.
Molecule `NS(=O)(=O)c1ccc(CCNC(=O)C(=O)c2cn(CC(=O)N3CCCC3)c3ccccc23)cc1` [MLS001235966] has an EC50 greater than 300 µM.
`Cc1cccc(C(=O)NCC(c2ccco2)N2CCc3ccccc32)c1` (stereo not given) [MLS001237444] was tested, and the EC50 was greater than 300 µM.
With `Cc1cc(C)c2nc(N(CCN(C)C)C(=O)c3ccc(S(=O)(=O)N(C)CC4CCCO4)cc3)sc2c1` (stereo not given) [MLS001239556] the EC50 was greater than 300 µM.
In the case of `C[C@H]1[C@@H](c2ccccc2)O[C@@H](c2ccccc2Br)N1C` [MLS001242758], the EC50 is reported as greater than 300 µM.
`O=S(=O)(NCCC1CC1(Cl)Cl)c1ccc(Cl)cc1` (stereo not given) [N1-[2-(2,2-dichlorocyclopropyl)ethyl]-4-chlorobenzene-1-sulfonamide] showed an EC50 greater than 300 µM.
`COc1ccc(OC)c(Nc2nc(N)c([N+](=O)[O-])c(NCc3ccccc3)n2)c1` [N2-(2,5-dimethoxyphenyl)-5-nitro-N4-(phenylmethyl)pyrimidine-2,4,6-triamine] gave an EC50 greater than 300 µM.
With `NCCCNc1nc(N)c([N+](=O)[O-])c(NC2CCCCC2)n1` [N2-(3-aminopropyl)-N4-cyclohexyl-5-nitropyrimidine-2,4,6-triamine] the EC50 was 3.06 µM.
In the case of `Cc1ccc(Nc2nc(N)c([N+](=O)[O-])c(NCc3ccccc3)n2)cc1` [N2-(4-methylphenyl)-5-nitro-N4-(phenylmethyl)pyrimidine-2,4,6-triamine], the EC50 is reported as greater than 300 µM.
`COc1ccccc1Nc1nc(NCCCN(C)C)nc(N)c1[N+](=O)[O-]` [N2-[3-(dimethylamino)propyl]-N4-(2-methoxyphenyl)-5-nitro-pyrimidine-2,4,6-triamine] was tested, and the EC50 was 2.13 µM.
`CCC(C)Nc1nc(N)c([N+](=O)[O-])c(Nc2cc(OC)ccc2OC)n1` (stereo not given) [N2-butan-2-yl-N4-(2,5-dimethoxyphenyl)-5-nitro-pyrimidine-2,4,6-triamine] showed an EC50 of 0.539 µM.
`CC1CCCC(NC(=O)C2CCN(C(=O)Nc3ccccc3)CC2)C1C` (stereo not given) [N4-(2,3-dimethylcyclohexyl)-N1-phenyl-piperidine-1,4-dicarboxamide] showed an EC50 greater than 300 µM.
For `COCCCNc1nc(N)c([N+](=O)[O-])c(Nc2cc(OC)ccc2OC)n1` [N4-(2,5-dimethoxyphenyl)-N2-(3-methoxypropyl)-5-nitro-pyrimidine-2,4,6-triamine], the EC50 was 0.742 µM.
For `CNc1nc(N)c([N+](=O)[O-])c(Nc2ccccc2OC)n1` [N4-(2-methoxyphenyl)-N2-methyl-5-nitro-pyrimidine-2,4,6-triamine], the EC50 was 3.44 µM.
Molecule `C=CCNc1nc(N)c([N+](=O)[O-])c(Nc2cccc(Cl)c2)n1` [N4-(3-chlorophenyl)-5-nitro-N2-prop-2-enyl-pyrimidine-2,4,6-triamine] has an EC50 of 11.8 µM.
In the case of `Nc1nc(NCC2CCCO2)nc(Nc2cccc(F)c2)c1[N+](=O)[O-]` (stereo not given) [N4-(3-fluorophenyl)-5-nitro-N2-(2-oxolanylmethyl)pyrimidine-2,4,6-triamine], the EC50 is reported as 7.14 µM.
In the case of `Cc1cccc(Nc2nc(N3CCN(C)CC3)nc(N)c2[N+](=O)[O-])c1` [N4-(3-methylphenyl)-2-(4-methylpiperazin-1-yl)-5-nitro-pyrimidine-4,6-diamine], the EC50 is reported as greater than 300 µM.
In the case of `Cc1cccc(Nc2nc(NCCCN3CCOCC3)nc(N)c2[N+](=O)[O-])c1` [N4-(3-methylphenyl)-N2-(3-morpholin-4-ylpropyl)-5-nitro-pyrimidine-2,4,6-triamine], the EC50 is reported as 1.72 µM.
For `Cc1ccc(CNc2nc(N)c([N+](=O)[O-])c(Nc3ccc(F)cc3)n2)cc1` [N4-(4-fluorophenyl)-N2-[(4-methylphenyl)methyl]-5-nitro-pyrimidine-2,4,6-triamine], the EC50 was greater than 300 µM.
For `COc1ccc(Nc2nc(NCCCN3CCOCC3)nc(N)c2[N+](=O)[O-])cc1` [N4-(4-methoxyphenyl)-N2-(3-morpholin-4-ylpropyl)-5-nitro-pyrimidine-2,4,6-triamine], the EC50 was 1.11 µM.
